Series [1] can be described thus: Removal efficacy test, solvent immersion followed by rinsing with water. The note with it: for Removal Efficacy normalized to trichloroethylene: Solvent-based preservative, water rinsing. The text has this:
(§1) For our evaluation, a comparative method was used in which removal efficacy (RE) of several alternative solvents are compared with RE value obtained for the industrial standard degreaser, trichloroethylene.
(§2) The removal Efficacy (RE) measures in percentage (%) the degree of removal of organic materials (metal protector and/or solvent) from the surface of metal parts. The removal efficacy test, the grease of ten metallic greased pieces was removed by degreasing process. The standard procedure is carried out by bringing the solvent into contact with ten metal pieces which were previously treated with the metal protector. The metal parts are immersed in the solvent without shaking during 10 minutes in one volume of fresh solvent followed by three consecutive washing cycles by immersion in clean water. The amount of organic material (grease and/or solvent) that was not eliminated by the assayed procedure was determined by direct weight after removal of organic residues from the metallic parts by standard cleaning procedure with trichloroethylene.
Preservative A is a solvent-based preservative Aromatic hydrocarbons are often used in preservative formulations.
(§3) The degreasing efficacy of the LAOC solvent family was studied. These experiments remove the grease of ten greased pieces according to the procedure described before. This experiment was carried out for two different greases and the obtained results are described in table 2.

Test in series [2]: as above
The settings on record: for Removal Efficacy normalized to trichloroethylene: Cereous preservative, water rinsing.
Source text: as §1, §2
Preservative B is a cereous-based preservative.
as §3

Series [3] can be described thus: Cytotoxicity, in vitro NRU. The class given is cell-based. The note with it: read-out: Cytotoxicity, in vitro NRU, IC50 (mg/mL). Experimental.
The nature of a further series: Fish acute toxicity. The settings on record: fish, in vivo; read-out: Fish acute toxicity, experimental, LC50.
For a further series, the system named is Fish. The experiment in a line: Fish acute toxicity. The settings on record: in vivo.
Series [4] in a line: Reusability of solvent without prior purification. How it is done: as §2
The recovery and reusability of solvents is critical in order to have an economically viable process. The reusability of butyl levulinate (LAOC-4) has been studied for both preservatives. The methodology involved the recovery and reuse of the solvent several times without any prior purification.

The nature of series [5]: Surface degreasing of metal parts followed by solvent evaporation.
For series [6] the following is noted: classified by many health authorities, R45 risk phrase; cited from earlier work.

A word on the LC50: it is the concentration lethal to half of the exposed cells or organisms.

Converted amounts (≈) assume the structure as drawn. Where only a bound is given, the exact number is not on record here.

Turning to `CCOC(=O)CCC(C)=O` [LAOC-2, Ethyl levulinate], the entries for the “Removal Efficacy normalized to trichloroethylene” value (shortened to “Removal Efficacy normalized”) in series [1] and in series [2] were 53.0% and 70.9%, respectively.
Turning to `CCCOC(=O)CCC(C)=O` [LAOC-3, Propyl levulinate], the entries for the “Removal Efficacy normalized” value in series [1] and in series [2] were 79.6% and 81.7%, respectively.
Turning to `CC(=O)CCC(=O)OC(C)C` [LAOC-3i, iso-propyl levulinate], the “Removal Efficacy normalized” value in series [2] was 87.0%.
As to `CCCCOC(=O)CCC(C)=O` [LAOC-4, Butyl levulinate], in series [3], the IC50 worked out at 5.7 mg/mL (≈ 33.1 mM). Also, in “Fish acute toxicity”, the LC50 was under 100 µg/mL. Further, the “Ecotoxicity rating (fish acute toxicity and ready biodegradability)” value (shortened to “Ecotoxicity rating”) with Fish is “Low ecotox”. The results for the “Removal Efficacy normalized” value in series [1] and in series [2] were 79.0% and 99.9%, respectively. Besides, the “Reusability (values normalized to trichloroethylene = 100)” value in series [4] (Cereous preservative, number of cycles 1) turned out to be 98.0; in series [4] (Cereous preservative, number of cycles 2) it was 93.2; in series [4] (Cereous preservative, number of cycles 4), 93.4; in series [4] (Cereous preservative, number of cycles 7), 85.9; in series [4] (Cereous preservative, number of cycles 10), 84.6; in series [4] (Solvent based preservative, number of cycles 1), 74.4. Further, the “Reusability (values normalized to trichloroethylene = 100)” value in series [4] (Solvent based preservative, number of cycles 2) came out at 78.2; in series [4] (Solvent based preservative, number of cycles 4), 62.2; in series [4] (Solvent based preservative, number of cycles 7) it was 69.7. Moreover, in series [5] (Ultrasound, 41° C., 10 min, evaporation 23 s at 117° C.), the “Removal efficacy (%)” value came to 100%.
With `CC(=O)CCC(=O)OCC(C)C` [LAOC-4i, iso-butyl levulinate], the IC50 in series [3] turned out to be 4.4 mg/mL (≈ 25.5 mM). Moreover, the LC50 in the series “Fish acute toxicity” was under 100 µg/mL. Moreover, the “Ecotoxicity rating” value with Fish is listed as “Low ecotox”. The “Removal Efficacy normalized” value in series [1] was 87.8%; in series [2], 96.4%.
For the compound `CCCCCOC(=O)CCC(C)=O` [LAOC-5, Pentyl levulinate], the IC50 in series [3] was 16.6 mg/mL (≈ 89.1 mM). Moreover, the LC50 in “Fish acute toxicity” is under 100 µg/mL. In addition, in the series on Fish, the “Ecotoxicity rating” value is given as “Low ecotox”. Besides, the entries for the “Removal Efficacy normalized” value in series [1] and in series [2] were 37.7% and 89.3%, respectively.
For the compound `CCCCCCOC(=O)CCC(C)=O` [LAOC-6, Hexyl levulinate], in series [2], the “Removal Efficacy normalized” value worked out at 56.0%.
With `CCCCCCCCOC(=O)CCC(C)=O` [LAOC-8, Octyl levulinate], in series [2], the “Removal Efficacy normalized” value turned out to be 61.0%.
For the compound `ClC=C(Cl)Cl` [Trichloroethylene, reference compound], the “RE (%) Removal Efficacy” value in series [1] (Preservative A (solvent-based), immersion 10 minutes, three water washing cycles) was 94.2%; in series [2] (Preservative B (cereous-based), immersion 10 minutes, three water washing cycles) it was 98.1%. Further, the “Removal Efficacy normalized” value in series [1] and in series [2] was 100.0% each time. The “removal efficacy (RE)” value in series [1] (depending on the nature of the preservative (both preservatives A and B)) is reported as 94-98%. In series [5] (Immersion, 20° C., 3 min, evaporation 3 min at 20° C.), the “Removal efficacy (%)” value worked out at 100%. In series [6], the carcinogen classification result is on record as “probable carcinogen”.

Values taken from patent US8834635B2, “Degreasing compositions derived from levulinic acid (a compound obtainable from biomass) and process for degreasing metal surfaces” (Institut Univ. de Ciencia Tecnologia, S.A., priority 2011, dated 2014).
